Test results taken from ChEMBL document CHEMBL1144607, “Novel hydroxamic acid-related phosphinates: inhibition of neutral aminopeptidase N (APN)” (Bioorg Med Chem Lett, 2007).
Active and inactive are the calls of the source. The calls are words filed in the database; no cut-off is given here.

Columns and labels:
[1] = target: T1, Aminopeptidase N (Homo sapiens, UniProt P15144); test: Inhibition of APN at <300 uM
[2] = target: T1, Aminopeptidase N; test: Inhibition of APN

T1 sequence (P15144 whole entry): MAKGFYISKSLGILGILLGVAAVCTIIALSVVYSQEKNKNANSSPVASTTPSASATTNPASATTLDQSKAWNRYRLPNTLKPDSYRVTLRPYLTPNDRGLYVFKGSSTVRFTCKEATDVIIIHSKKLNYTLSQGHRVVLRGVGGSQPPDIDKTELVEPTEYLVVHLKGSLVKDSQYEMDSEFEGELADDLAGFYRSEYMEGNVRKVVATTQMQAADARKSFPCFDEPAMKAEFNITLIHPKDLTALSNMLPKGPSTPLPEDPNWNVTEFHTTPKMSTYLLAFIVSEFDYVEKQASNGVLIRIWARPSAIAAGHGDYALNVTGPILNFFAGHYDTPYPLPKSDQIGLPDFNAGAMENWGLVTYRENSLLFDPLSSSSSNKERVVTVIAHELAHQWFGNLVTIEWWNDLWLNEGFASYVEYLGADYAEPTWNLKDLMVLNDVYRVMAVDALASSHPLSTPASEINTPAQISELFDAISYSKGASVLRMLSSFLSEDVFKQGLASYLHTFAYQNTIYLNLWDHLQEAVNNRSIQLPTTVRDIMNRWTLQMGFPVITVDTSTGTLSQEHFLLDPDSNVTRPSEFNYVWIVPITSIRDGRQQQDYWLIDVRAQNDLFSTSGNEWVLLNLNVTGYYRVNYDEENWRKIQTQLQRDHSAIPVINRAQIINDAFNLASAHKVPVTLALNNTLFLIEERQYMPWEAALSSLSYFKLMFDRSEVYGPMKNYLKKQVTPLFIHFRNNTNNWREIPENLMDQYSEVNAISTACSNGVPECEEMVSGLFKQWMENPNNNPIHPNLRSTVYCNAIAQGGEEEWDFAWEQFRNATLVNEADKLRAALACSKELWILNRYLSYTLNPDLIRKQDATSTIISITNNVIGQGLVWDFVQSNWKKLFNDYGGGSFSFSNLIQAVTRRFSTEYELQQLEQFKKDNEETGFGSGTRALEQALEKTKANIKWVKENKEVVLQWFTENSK

CCCCCNC(=O)P(=O)(O)C(N)Cc1ccccc1 (centres undefined)
Activity [1]: inactive

CC(C)C(N)P(=O)(O)C(=O)Nc1ccccc1 (centres undefined)
IC50 [2]: 160 µM

CC(C)CC(N)P(=O)(O)C(C)N (centres undefined)
IC50 [2]: 155 µM

CCNC(=O)P(=O)(O)C(N)C(C)C (centres undefined)
Activity [1]: inactive
